We go through ten compounds from US20250320462A1, “METHODS AND APPARATUSES FOR TESTING HEPATOCYTE TOXICITY USING MICROORGANOSPHERES” (XILIS, INC., priority 2022, published 2025).

Read-outs that look alike come from different tables or passages of the source. Where only a bound is given, the exact number is not on record here.

For one data set, the system named is HepatoMOS (PHHs). As to the kind of experiment: HepatoMOS-based DILI assay (CTG viability, live/dead staining). The class given is cell-based, human. As to conditions: for IC50: Homo sapiens; for sensitivity of HepatoMOS-based versus spheroid-based DILI assay: indicated by lower IC50 values and large safety margins. As to the method:
Frozen human hepatocytes from Lonza were plated at 30,000 cells per well and allowed to establish in plating media. On day 2 plating media was removed and replaced with maintenance media and cultured for 1 day. On the third day, media was replaced with treatment media and the cells were treated for 72 hours. Prior to harvest HepatoMOSs were treated with CTG reagent to monitor viability.
100 cells/droplet was used in this experiment, the cell viabilities were determined by Celltiter Glo 3D.
(§1) Cell viability assay: The cell viabilities of PHHs in 2D monolayer culture or HepatoMOS culture were measured by CellTiter-Glo® 3D Cell Viability Assay (Promega). For the HepatoMOS viability measurement, we also applied the combination of Calcein AM and EtH staining in addition to CTG assay as previously reported.
(§2) DILI assessment in 2D PHHs and HepatoMOS: For the DILI assessment in the 2D monolayer of PHH cultures, PHHs were seeded at the cell density of 20,000 live cells/well in the collagen-coated 96-well plates. After 24h of culturing, the PHHs were exposed to DILI compounds at different concentrations. The cell viabilities of PHHs were then measured by using CTG assay and the DILI effects were assessed by the changes of CTG reading. For the DILI assessment in HepatoMOS culture, the HepatoMOS were encapsulated at 100 cells/droplet and cultured at HCM or InSphero media for 4 days. Then the HepatoMOS were dispensed into 96 well plates and followed by the drug treatment.

Another data set deals with spheroid PHHs. As to the kind of experiment: Spheroid-based DILI assay. The class given is cell-based, human. As to the method:
Culture of PHHs and HepatoMOS generation: The pooled donors and the individual donor of PHHs were purchased from BioIVT (www.bioivt.com). The PHHs used to compare the DILI predictivities of the spheroid method vs. HepatoMOS methods were accompanied with the InSphero Kit. Four different serum-free media options (InSphero, HCM™ Hepatocyte Culture Medium BulletKit™, BioIVT INVITROGRO HI Medium, and William E) were selected for the initial HepatoMOS culture in this study. PHHs were cultured either as a 2D monolayer on collagen-coated 96-well plates or encapsulated in MOS to create HepatoMOS at different cell densities. For the comparison of HepatoMOS with the dome culture methods, matched cell densities used for the dome and making HepatoMOS were used.
Given the high fidelity of cell viability, maintenance, and hepatic-specific function preservation in HepatoMOS culture, the potential application in predicting DILI effects during drug development was evaluated. The sensitivities and specificities of HepatoMOS were compared with two widely used approaches for DILI detection: i) 2D culture; and ii) spheroid PHHs.

For data set [1], the system named is 2D monolayer of PHH cultures. Nature of the data set: 2D-based DILI assay. The class given is cell-based, human. As to the method: as §1, §2
The conditions of data set [2]: combined with immunotherapies; cited from earlier work.
The subject of a further data set is HepG2. As to conditions: values above 199 show no toxicity; read-out: Typical 2D HepG2 Monolayer Cell Health IC50; cited from earlier work.
In another data set the test system is 3D Hepatocyte Spheroid. To be noted: values above 199 show no toxicity; read-out: 3D Hepatocyte Spheroid pIC50 (converted); cited from earlier work.
The next data set has as its system tumor MOSs. Nature of the data set: Drug screen on MOSs generated from a patient tumor biopsy. Type of data set: cell-based. As to the method: (§3) In a similar set of experiments, MOSs were generated from biopsy material (FIG. 23A), and a drug effect screen was performed using the resulting MOSs. […] Thus, the MOSs correlated strongly with patient response to the standard of care drugs. In this case, the patient endured six months of side effects and toxicities that may have been avoided by the predicted response from the MOSs, indicating (within 7-10 days from the biopsy) that the tumor would not respond to these drugs.
In this example, a drug screen using the Patient-Derived MOSs was run by dosing a plurality of replicates for each of a plurality of (27) drugs. A single tumor biopsy was used to generate a plurality of MOSs in large quantities extremely fast (e.g., within less than two weeks) and these MOSs were tested against the panel of drug formulations (e.g., 27 formulations are shown). This testing was done in parallel and could be automatically quantified (e.g., by optical detection and quantification).

The next data set relates to tumor. Nature of the data set: Actual patient tumor response to treatment. To be noted: in vivo. As to the method:
as §3

In the next data set the test system is traditional cell line. Nature of the data set: Traditional cell line drug screen. The class given is cell-based. As to conditions: all dose ranges examined. An excerpt:
As mentioned above, the MOSs and methods of using them to screen for drug compositions may be used to accurately predict the response of a patient tumor to one or more drug therapies. […] For example, in FIG. 22A-22D, the MOSs, but not a cell line, was able to correlate with patient response.

For a further data set, the system named is mouse liver MOSs. As to the kind of experiment: Toxicity assay using mouse liver MOSs. The class given is cell-based. To be noted: 10 mM.
The next data set relates to human liver MOSs. As to the kind of experiment: Toxicity assay using human liver MOSs. Type of data set: cell-based. To be noted: 10 mM. An excerpt: Similarly, FIGS. 34A-34B also show toxicity assays using human liver MOSs.

Turning to `C=CC(=O)N1CCN(c2nc(=O)n(-c3c(C)ccnc3C(C)C)c3nc(-c4c(O)cccc4F)c(F)cc23)[C@@H](C)C1` [AMG-510], the IC50 in the data set with HepatoMOS (PHHs) (10 donor batch) was below 10 µM; with HepatoMOS (PHHs) (single donor), below 3.7 µM. In addition, the “DILI concern in spheroid-based DILI assay” value with spheroid PHHs is “failed to capture any DILI concern”. For the same compound, the “DILI concern in 2D-based DILI assay” value in data set [1] was “failed to capture any DILI concern”. Besides, the “liver side effects in Phase 1 clinical trial” value in [2] is reported as “higher incidence of severe liver side effects”.

In the case of `COc1ccccc1Oc1c(NS(=O)(=O)c2ccc(C(C)(C)C)cc2)nc(-c2ncccn2)nc1OCCO` [Bosentan], the IC50 in the data set with HepG2 was above 200 µM; with 3D Hepatocyte Spheroid, 166 µM.

For `O=C(O)Cc1ccccc1Nc1c(Cl)cccc1Cl` [Diclofenac], the IC50 was above 200 µM in the data set with HepG2 and 66.1 µM in the data set on 3D Hepatocyte Spheroid.

For `O=c1[nH]c(=O)n([C@@H]2O[C@H](CO)[C@@H](O)[C@@H]2F)cc1I` [Fialuridine], the IC50 in the data set with HepG2 was above 200 µM; in the data set on 3D Hepatocyte Spheroid it was 1.32 µM.

`CCc1c2c(nc3ccc(OC(=O)N4CCC(N5CCCCC5)CC4)cc13)-c1cc3c(c(=O)n1C2)COC(=O)[C@]3(O)CC` [Irinotecan]: the “cell survival of tumor MOSs” value in the data set on tumor MOSs is reported as “lack of effect”. For the same compound, the “patient tumor response to treatment” value with tumor is “no response”.

`CS(=O)(=O)CCNCc1ccc(-c2ccc3ncnc(Nc4ccc(OCc5cccc(F)c5)c(Cl)c4)c3c2)o1` [Lapatinib]: the results for the IC50 in the data set with HepG2 and in the data set on 3D Hepatocyte Spheroid were above 200 µM and 1.32 µM, respectively.

As to `O=C1[O][Pt]2([NH][C@@H]3CCCC[C@H]3[NH]2)[O]C1=O` [Oxaliplatin], the figures for the “cell survival of tumor MOSs” value in the data set on tumor MOSs (listed as Oxalipalatin) and in the data set on tumor MOSs (listed as Oxalipalitin) were “no change in the percent survival” and “significant decreases in cell survival”, respectively. Also, the “patient tumor response to treatment” value in the data set with tumor (listed as Oxalipalatin) was “no response”; in the data set on tumor (listed as Oxalipalitin) it was “responded to treatment”. For the same compound, in the data set on traditional cell line, the “effect on traditional cell line” value is reported as “no effect”.

Turning to `Cc1ccc(C(=O)c2cc(O)c(O)c([N+](=O)[O-])c2)cc1` [Tolcapone], the “sensitivity of HepatoMOS-based versus spheroid-based DILI assay” value in the data set on HepatoMOS (PHHs) was “better sensitivities”. The IC50 with HepG2 is 91.2 µM; in the data set on 3D Hepatocyte Spheroid, 9.99 µM.

On to `Cc1c(C)c2c(c(C)c1O)CCC(C)(COc1ccc(CC3SC(=O)NC3=O)cc1)O2` (centres unmarked) [Troglitazone], for which the “sensitivity of HepatoMOS-based versus spheroid-based DILI assay” value with HepatoMOS (PHHs) is reported as “better sensitivities”.

Take `CC(=O)Nc1ccc(O)cc1` [acetaminophen]: the “tissue in mouse liver MOSs versus control” value with mouse liver MOSs is “smaller and contains many dead cells”. Further, the “tissue in human liver MOSs versus control” value in the data set on human liver MOSs was “significant increase atypical tissue structures (arrows) and debris”.
